Assay [1] relates to THP-1 macrophages. Briefly: Phagocytosis of FITC-PA in THP-1 macrophages. It counts as cell-based, human. As for the experimental part: BMDM were isolated by culturing bone marrow cells in the presence of 10 ng/ml granulocyte-macrophage colony-stimulating factor (PeproTech) for 7 days. Murine macrophages were cultured in RPMI 1640 medium supplemented with 10% FBS and 1% penicillin-streptomycin. The human THP-1 cell line (American Type Culture Collection, Manassas, Va.) was grown in RPMI 1640 medium supplemented with 10% non-heat-inactivated fetal bovine serum and β-mercaptoethanol per manufacturer's instructions. Macrophage differentiation occurred through supplementation with 20 ng/ml Phorbol 12-myristate 13-acetate (Sigma Aldrich, St. Louis, Mo.) for 48 h.
Bacterial phagocytosis was quantified using a flow cytometry analysis.
THP-1 cells were infected with lentivirus particles containing MARCO shRNA (Open Biosystems, Huntsville, Ala.). Puromycin supplemented medium ensured positive selection of lentivirus plasmid-expres sing cells, and knockdown of MARCO mRNA and protein was confirmed by both real-time PCR and western blot.

In assay [2] the test system is GSH. To be noted: COPD alveolar macrophages, 5 μM for 16 h. As for the experimental part: (§1) For inducing corticosteroid resistance, PMs were exposed to cigarette smoke condensate (CSC, 100 μg/ml; Murty Pharmaceuticals, Lexington, Ky.) for 16 h. Exposure to S-nitrosoglutathione (GSNO, 10 μM) was limited to 4 h. […] For assessing corticosteroid responsiveness, macrophages were incubated with dexamethasone (1 μM, Sigma) for 1 h followed by LPS (100 ng/ml, Sigma) for additional 4 h.
(§2) HDAC activity was measured using a fluorescent derivative of ε-acetyl-lysine from Enzo life sciences (Farmingdale, N.Y.) according to the manufacturer's recommendations. HDAC2 was immunoprecipitated for analysis of enzymatic activity.

Assay [3] deals with HDAC. To be noted: COPD alveolar macrophages, versus vehicle. As for the experimental part: as §1, §2
Assay [4] deals with IL-8 gene. To be noted: sulforaphane treatment with DEX. As for the experimental part:
as §1
Total RNA was extracted from the cells by lysis and specific binding to a silica membrance (Qiagen RNeasy kit, Qiagen, Valencia, Calif.), and qRT-PCR was performed by using primers and probe sets for human IL-8, NQO1, GCLM, and iNOS (Assay-on-Demand, Applied Biosystems, Foster City, Calif.). A real-time fluorescent PCR system (ABI 7000 Taqman system, Applied Biosystems) was used to perform these assays. β-actin was used as the normalization control.

The subject of assay [5] is HDAC2. Type of assay: cell-based, human. As for the experimental part:
as §1, §2
(§3) Macrophage cell or lung tissue extracts were prepared by using 100 μL of immunoprecipitation buffer (50 mM Tris-HCl, pH 8.0, 150 mM NaCl, 1.0% Triton X-100, 0.5% NP-40, 0.1% SDS, 0.5% deoxycholate, and complete protease inhibitor cocktail) from Roche (Morristown, N.J.). The lysis mixture was incubated on ice for 15 minutes and microcentrifuged for 10 minutes at 4° C. Extracts were precleared with 20 μL protein A/G sepharose beads (a 50:50 mix) from Thermo scientific (Rockford, Ill.) and 2 μg of normal IgG. After microcentrifugation, 20 μL of protein A/G sepharose conjugated with 5 μg of antibody was used to precipitate HDAC2 (Santa Cruz Biotechnology, Santa Cruz, Calif.) overnight at 4° C. with rotation. The immune complexes were pelleted with gentle centrifugation, washed twice with 1 mL of immunoprecipitation buffer, and divided equally for the final wash for the activity assay and immunoblotting. For the HDAC assay, immunoprecipitates were resuspended in the activity assay buffer (50 mM TrisHCl, pH 8.0; 10% glycerol; 1 mM dithiothreitol; 0.1 mM EDTA, complete protease inhibitor cocktail). For HDAC2-specific western blotting, immune complexes were washed three times with the immunoprecipitation buffer and finally resuspended in Laemmli buffer for the SDS-PAGE.

Assay [6] deals with HDAC2. Briefly: Posttranslational modification of HDAC2 in alveolar macrophages (immunoblot, DAN, biotin-switch). It counts as cell-based, human. As for the experimental part:
S-nitrosylation of proteins was analyzed by anti-SNO antibody, biotin switch assay, and or 2,3-diaminonapthalene (DAN) assay. […] Detail methodology is described in supplementary data.
as §3
For HDAC2-specific nitrosylation detection, cells were lysed in buffer (50 mM Tris-HCl, pH 8.0, 150 mM NaCl, 1% Nonidet P-40, 0.5% deoxycholic acid, 0.1% SDS). […] The pellets were resuspended in 500 μL of PBS.
This assay was performed in the dark.
The Image J program was used for densitometry analyses.
On the technique in general: In western blotting, separated proteins are transferred to a membrane and probed.

For assay [7], the system named is SNO proteins. The note with it: anti-SNO immunoblot, verified by DAN assay, vs vehicle. As for the experimental part: S-nitrosylated proteins were detected by using the nitrate/nitrite fluorometric assay kit from Cayman chemicals (Ann Arbor, Mich.) according to the manufacturer's instructions. For HDAC2-specific nitrosylation detection, cells were lysed in buffer (50 mM Tris-HCl, pH 8.0, 150 mM NaCl, 1% Nonidet P-40, 0.5% deoxycholic acid, 0.1% SDS). These lysates were then subjected to immunoprecipitation by using an anti-HDAC2 antibody as described above. The immunoprecipitates were washed twice with lysis buffer and twice with PBS. The pellets were resuspended in 500 μL of PBS. After the addition of 100 μM HgCl2 and 100 μM DAN, the samples were incubated in the dark at 25° C. for 30 minutes, and 1 M NaOH was added. The generated fluorescent triazole from the reaction of the DAN with the NO released from the HDAC2 protein was measured by using an excitation wavelength of 375 nm and an emission wavelength of 450 nm. As a negative control, the antibody alone in lysis buffer was immunoprecipitated. The resulting background fluorescence intensity was subtracted for each experiment.

The subject of assay [8] is MMP9.
The mark [9] stands for this setting: GSNO-exposed alveolar macrophages.
Where [10] appears, read: nuclear immunopurified HDAC2, compared with vehicle.

Take `C[S+]([O-])CCCCN=C=S` (stereo not shown) [sulforaphane]: in assay [1] (THP-1 macrophages transfected with Luc-shRNA), the “phagocytosis of FITC-Pseudomonas aeruginosa” value is given as “significantly elevated phagocytosis”. Also, in assay [1] (THP-1 macrophages with MARCO-shRNA), the “phagocytosis of FITC-Pseudomonas aeruginosa” value is “but not in MARCO-shRNA”. Further, the GSH levels entry in assay [2] was “significantly elevated”. Further, the “enzymatic activity of total HDAC” value in assay [3] is reported as “significantly elevated”. For the same molecule, the “expression of the IL-8 gene” value in assay [4] is reported as “concomitant reduction”. Further, the “enzymatic activity of HDAC2” value in assay [5] (COPD alveolar macrophages, P<0.01 versus vehicle) is recorded as “approximately 2 fold”. Further, in assay [5] (in the presence of BSO), the HDAC2 activity result is listed as “failed to increase HDAC2 activity”. Further, the HDAC2 enzymatic activity result in assay [5] (treatment after GSNO exposure of alveolar macrophages) is reported as “significantly increased HDAC2 activity”. The “S-nitrosylation of HDAC2” value in assay [6] (2,3-diaminonaphthalene and biotin-switch assays) is “reduced”. In assay [6] (setting [9]), the “levels of NO-Tyr HDAC2” value was “decreased the levels of both NO-Tyr HDAC2 and SNO-HDAC2”; the “levels of SNO-HDAC2” value is “decreased the levels of both NO-Tyr HDAC2 and SNO-HDAC2”. Further, in assay [6] (GSNO-exposed alveolar macrophages in the presence of buthionine sulfoximine), the “ability to reduce the levels of SNOHDAC2 protein” value is given as “ablated”. In addition, the “S-nitrosylation of HDAC2 (SNO-HDAC2)” value in assay [6] (anti-SNO antibody immunoblot) is listed as “significantly reduced”. Moreover, the “tyrosine nitration of HDAC2 (nitrotyrosine-HDAC2)” value in assay [6] (immunopurified HDAC2 from alveolar macrophages, compared with vehicle) is given as “Significant reductions”. For the same molecule, in assay [6] (setting [10]), the “serine phosphorylation of HDAC2” value is listed as “Significant reductions” and the “ubiquitination of HDAC2” value is given as “Significant reductions”. Further, the “SNO proteins in lysates” value in assay [7] is “significant reduction in SNO proteins”. Besides, in assay [8], the “secretory levels of active MMP9” value is recorded as “significantly reduced”. Further, the “levels of S-nitrosylated MMP9” value in assay [8] (biotin-switch assay) was “significantly reduced”.
